Measured values: patent US9896448B2, “Pyrimido[4,5-b]quinoline-4,5(3H, 10H)-dione derivatives” (Novartis AG, priority 2014, dated 2018)

Tests used:
[1] = system: alpha-L-Iduronidase W402X in Hurler patient derived fibroblast cells; test: Hurler patient derived fibroblast cell cultures: restored alpha-L-iduronidase activity (W402X readthrough); assay type: cell-based; settings: Homo sapiens, 192 h, 8 days incubation, highest concentration 20 uM; for Emax: 100% = 14 mM paromomycin, read-out: Amax
Text: Activity of compounds of the present invention was examined in patient derived fibroblast cells. The genotyped cells were derived from the Coriell Institute (#GM00798) and contain an in frame homozygous TGG to TAG change at nucleotide 1293 of exon 9 which results in a W402X mutation. The W402X mutation is one of the most common Hurler syndromes causing loss of function mutation. Between 60-70% of genotyped patients contain either the Q70X and/or the W402X in mutation and are classified as severe MPSI patients. This TAG stop codon triplet is permissive to aminoglycoside mediated translational readthrough which served as activity control for compound testing. Readthrough of W402X restores alpha-L-Iduronidase activity which results in removal of lysosomal accumulated Glycosaminoglycan's. Iduronidase expression could neither be detected by Taqman PCR© nor by enzyme activity or ELISA methods without compound stimulation. Compounds were tested in concentration response mode. Therefore 5000 patient cells/40 ul/well in 384 well plates were used. Compound dilutions were derived from freshly prepared 10 mM compound stock solutions. Highest concentration was 20 uM and subsequently diluted 1: 3.16 (8 point dilutions, n=4). Final DMSO concentration was below 0.5% and tested to be without effect on cell viability, growth and readthrough. Cells were incubated for 8 days with one cell media and compound exchange at day 3. Thereafter cell media was removed and cells were lysed (0.4 M Sodiumformate, 0.1% NaN3, 0.9% NaCl, 0.2% Triton, pH 3.5). Restored alpha-L-iduronidase activity in cell lysates was measured with the fluorescent 4-MU iduronide substrate (5 ul of 0.4 mM 4 Methylumbelliferyl alpha-L-iduronide/well) after 48 h incubation. Paromomycin was used as reference control (14 mM=100% control).

[2] = system: CFTR-Y122X; test: CFTR-Y122X assay (dual reporter Hek293 cell lines, Renilla luminescence readthrough); assay type: cell-based, human; settings: for Emax / AC50: nonsense mutation suppression, 24 h incubation, tested up to 100 μM; for Emax: 100% = 14 mM paromomycin, read-out: Amax; for AC50: Renilla luminescence
Text: In particular, compounds of formula (I) act as nonsense mutation suppressors on frequent PTCs, e.g. on Y122X in the mRNA of the cystic fibrosis conductance regulator protein (CFTR). This can be determined in vitro, for example, using cell lines expressing GFP-CFTR-Y122X-Renilla constructs as described herein.
Activity of compounds of the present invention was examined in recombinant, dual reporter isogenic Hek293 cell lines (“CFTR-Y122X assay”). The engineered reporter constructs contained the 18 bp sequence strech corresponding to a common Y122X PTC mutation in CFTR class I mutant patients (see Sermet-Gaudelus, BMC Medicine, 2007, 5(5)). Instead of a tyrosine (Y) in position 122 of the CFTR protein a TGA stop codon interrupts the open reading frame (Y122X) of the corresponding mRNA. This TGA stop codon triplet (followed by the pyrimidine base cytosine) is permissive to aminoglycoside mediated translational readthrough which served as positive control for high throughput screening. A corresponding TAA stop codon variant and a wildtype non mutated construct was used for confirmation and counter screening. The CFTR sequence was sandwitched between an eGFP reporter, and a triple myc tag sequence fused to a full length Renilla reporter. All sequences, including an intron containing one positioned pre-eGFP (b-globin intron) were cloned in frame. The corresponding expression constructs were stably expressed in the isogenic HEK-R4 cell host (Invitrogen Incorp.) and selected by blasticidin resistance. The isogenic integration of the construct minimizes gene dose effects and improves assay reproducibility. Stably integrated single cell derived clones were selected and characterized for aminoglycoside mediated readthrough. […] Readthrough of Y122X accumulates an intracellular localized fusion protein approximately 65.5 kDa in size as controlled by western blot analysis and immunofluorescence using an anti-renilla antibody. The eGFP reporter pre-PTC mutation serves as visual control for genetic stability of the screening clones and minimizes protein degradation of small fusion protein amounts. In the assay, compound concentration was 10 μM. In miniaturized 1536 well format 2000 cells were dispensed in 4 μl/well and incubated for 24 h at 37° C., 5% CO2. 40 nl compounds were placed on the cells with control wells containing 1 ul Paramomycin and 14.4 mM final concentration. Compounds were incubated for 24 h. Renilla Glo substrate (2.5 ul) was added and plates were centrifuged and processed for luminescence measurement using various readers. Activity calculation was done using the equation: A1(%)=100*(S−NC)/(AC−NC) where AC, NC and S correspond to active controls (injection of Stimulation buffer=100% stimulation), neutral controls (buffer injection which […]) and screening samples (S). NC corresponds to 0% activity whereas AC is 100% activity (14 mM paromomycin). False positive artefacts were removed in confirmation and validation screening using the same assay format followed by counterscreening using the respective wildtype construct (w/o PTC mutation) cell model. Compounds were tested up to 100 μM compound concentration.

Structure (SMILES)	Emax [1]	Emax ([2]; Homo sapiens, HEK293)	AC50 ([2]; Homo sapiens, HEK293)	EC50 ([2]; Homo sapiens, HEK293, clone selected for HTS assay development, read-out: EC50 (response of selected clone to aminoglycoside mediated readthrough))	suppression, % of paromomycin reference activity ([2]; at the above dose ranges (up to 100 μM), paromomycin reference = 100%)	AC50 ([1]; 8 point dilutions)
CC(C)c1nc2c(c(=O)c3ccccc3n2C)c(=O)n1-c1ccncc1 [Example 1.6, 2-isopropyl-10-methyl-3-(pyridin-4-yl)pyrimido[4,5-b]quinoline-4,5(3H,10H)-dione]	5%	14.9%	2.9 µM	–	–	–
NC[C@@H]1O[C@H](O[C@H]2[C@@H](O)[C@H](O[C@@H]3[C@@H](O)[C@H](N)C[C@H](N)[C@H]3O[C@H]3O[C@H](CO)[C@@H](O)[C@H](O)[C@H]3N)O[C@@H]2CO)[C@H](N)[C@@H](O)[C@@H]1O [paromomycin, reference compound]	–	–	–	1500 µM	–	–
CCCc1nc2c(c(=O)c3ccccc3n2C)c(=O)n1-c1ccn(C)n1 [Example 1.3, 10-methyl-3-(1-methyl-1H-pyrazol-3-yl)-2-propylpyrimido[4,5-b]quinoline-4,5(3H,10H)-dione]	8%	202%	31.8 µM	–	–	–
CC(C)c1nc2c(c(=O)c3ccccc3n2C)c(=O)n1-c1ccnn1C [2-isopropyl-10-methyl-3-(1-methyl-1H-pyrazol-5-yl)pyrimido[4,5-b]quinoline-4,5(3H,10H)-dione]	–	–	–	–	less than 5%	–
Cn1c2ccccc2c(=O)c2c(=O)n(-c3ccccn3)c(C3CCC3)nc21 [Example 1.8, 2-cyclobutyl-10-methyl-3-(pyridin-2-yl)pyrimido[4,5-b]quinoline-4,5(3H,10H)-dione]	184%	271%	4.8 µM	–	–	9.9 µM
CC(C)c1nc2c(c(=O)c3ccccc3n2C)c(=O)n1-c1ccsc1 [Example 1.5, 2-isopropyl-10-methyl-3-(thiophen-3-yl)pyrimido[4,5-b]quinoline-4,5(3H,10H)-dione]	5%	128%	12.3 µM	–	–	–
CC(C)c1nc2c(c(=O)c3ccccc3n2C)c(=O)n1-c1ccccn1 [Example 1.7, 2-isopropyl-10-methyl-3-(pyridin-2-yl)pyrimido[4,5-b]quinoline-4,5(3H,10H)-dione]	11%	164%	11.7 µM	–	–	–
CC(C)c1nc2c(c(=O)c3ccccc3n2C)c(=O)n1-c1cc[nH]n1 [Example 1.1, 2-isopropyl-10-methyl-3-(1H-pyrazol-3-yl)pyrimido[4,5-b]quinoline-4,5(3H,10H)-dione]	7%	14.8%	6.7 µM	–	–	–
CC(C)c1nc2c(c(=O)c3ccccc3n2C)c(=O)n1-c1ccn(C)n1 [Example 1.4, 2-isopropyl-10-methyl-3-(1-methyl-1H-pyrazol-3-yl)pyrimido[4,5-b]quinoline-4,5(3H,10H)-dione]	21%	133%	13.6 µM	–	–	–
CCCc1nc2c(c(=O)c3ccccc3n2C)c(=O)n1-c1ccccn1 [Example 1.2, 10-methyl-2-propyl-3-(pyridin-2-yl)pyrimido[4,5-b]quinoline-4,5(3H,10H)-dione]	1%	235%	18 µM	–	–	–
